This is an account of results in patent US9637491B2, “Pyrazolo[4,3-D]pyrimidines as kinase inhibitors” (Origenis GmbH, priority 2012, dated 2017).

Molecules are shown by their SMILES.

The target in the test is T1, SYK kinase (Homo sapiens, UniProt P43405).
T1 construct: purchased Invitrogen, Carlsbad
The test can be described thus: SYK assay (OMNIA Kinase Assay, Invitrogen). It is filed as biochemical. The note with it: SYK Activities; 1 mM ATP, 10 μM Omnia Peptide Substrate Tyr 7, 30° C. As for the experimental part: In the assay OMNIA® KINASE ASSAY by Invitrogen Corporation (Carlsbad) the effect of invention of a compound on the phosphorylation is determined by measurement of fluorescence intensity of a chelation-enhanced fluorophore called SOX. Upon phosphorylation of the peptide by the kinase of interest, Mg2+ is chelated to form a bridge between the SOX moiety and the phosphate group that is transferred to the specific tyrosine on the peptide. The fluorescence intensity is directly proportional to the amount of peptide phosphorylation.
To the wells of an 384 well small volume plate (Greiner, Frickenhausen) are added (i) the compound under test in 5% DMSO/distilled water (2 μl), (ii) 16 μl of the master mix containing ATP, DTT, Kinase Reaction Buffer, Omina Peptide Substrate Tyr 7 resulting in a final concentration of 1 mM ATP, 0.2 mM DTT and 10 μM Peptide Substrate. The Master Mix and the assay plate was incubated to reaction temperature before the measurement (30° C.). The reaction was started with addition of (iii) 2 μl 4 μg/ml SYK kinase (Invitrogen, Carlsbad). During measurement fluorescence intensitiy readings were collected using a TECAN M1000 at a wavelength of λex 360/λem 485 nm every 30 s for 30 minutes. The reaction velocity was plotted versus the inhibitor concentration to determine the IC50 using XLFit 5.0 (IDBS, Guildford) to fit to a sigmoidal dose response curve.
In the case of `COc1cc(Nc2nc(-c3ccc4cn[nH]c4c3)nc3cn[nH]c23)ccc1N1CCOCC1` [Example 54, 5-(1H-indazol-6-yl)-N-(3-methoxy-4-morpholinophenyl)-1H-pyrazolo[4,3-d]pyrimidin-7-amine], the IC50 was < 10 nM. In turn, `c1cc(N2CCNCC2)ccc1Nc1nc(C2CC2)nc2cn[nH]c12` [Example 55, 5-cyclopropyl-N-(4-(piperazin-1-yl)phenyl)-1H-pyrazolo[4,3-d]pyrimidin-7-amine] yielded an IC50 of 100 to 1000 nM.

For `CC(=O)N1CCN(c2ccc(Nc3nc(-c4ccno4)nc4cn[nH]c34)cc2)CC1` [Example 67, 1-(4-(4-((5-(isoxazol-5-yl)-1H-pyrazolo[4,3-d]pyrimidin-7-yl)amino)phenyl)piperazin-1-yl)ethan-1-one], the IC50 is 100 to 1000 nM. `COc1ccc(Nc2nc(-c3ccno3)nc3cn[nH]c23)cc1OC` [Example 68, N-(3,4-dimethoxyphenyl)-5-(isoxazol-5-yl)-1H-pyrazolo[4,3-d]pyrimidin-7-amine] gave an IC50 of 100 to 1000 nM.

For the compound `c1cc(-c2nc(Nc3ccc(N4CCOCC4)cc3)c3[nH]ncc3n2)on1` [Example 69, 5-(isoxazol-5-yl)-N-(4-morpholinophenyl)-1H-pyrazolo[4,3-d]pyrimidin-7-amine], the IC50 was < 10 nM. `Fc1cc(Nc2nc(-c3ccno3)nc3cn[nH]c23)ccc1N1CCOCC1` [Example 70, N-(3-fluoro-4-morpholinophenyl)-5-(isoxazol-5-yl)-1H-pyrazolo[4,3-d]pyrimidin-7-amine] displayed an IC50 of 100 to 1000 nM. As for `COc1cc(Nc2nc(-c3ccno3)nc3cn[nH]c23)ccc1N1CCOCC1` [Example 71, 5-(isoxazol-5-yl)-N-(3-methoxy-4-morpholinophenyl)-1H-pyrazolo[4,3-d]pyrimidin-7-amine], the IC50 lay within 100 to 1000 nM. As for `CC(=O)N1CCN(c2ccc(Nc3nc(-c4ccon4)nc4cn[nH]c34)cc2)CC1` [Example 72, 1-(4-(4-((5-(isoxazol-3-yl)-1H-pyrazolo[4,3-d]pyrimidin-7-yl)amino)phenyl)piperazin-1-yl)ethan-1-one], the IC50 fell in the range of 100 to 1000 nM. Turning to `COc1ccc(Nc2nc(-c3ccon3)nc3cn[nH]c23)cc1OC` [Example 73, N-(3,4-dimethoxyphenyl)-5-(isoxazol-3-yl)-1H-pyrazolo[4,3-d]pyrimidin-7-amine], the IC50 is 100 to 1000 nM. The compound `c1cc(-c2nc(Nc3ccc(N4CCOCC4)cc3)c3[nH]ncc3n2)no1` [Example 74, 5-(isoxazol-3-yl)-N-(4-morpholinophenyl)-1H-pyrazolo[4,3-d]pyrimidin-7-amine] returned an IC50 of 100 to 1000 nM. Regarding `Fc1cc(Nc2nc(-c3ccon3)nc3cn[nH]c23)ccc1N1CCOCC1` [Example 75, N-(3-fluoro-4-morpholinophenyl)-5-(isoxazol-3-yl)-1H-pyrazolo[4,3-d]pyrimidin-7-amine], the IC50 was in the range of 100 to 1000 nM. `COc1cc(Nc2nc(-c3ccon3)nc3cn[nH]c23)ccc1N1CCOCC1` [Example 76, 5-(isoxazol-3-yl)-N-(3-methoxy-4-morpholinophenyl)-1H-pyrazolo[4,3-d]pyrimidin-7-amine] came in with an IC50 of 100 to 1000 nM.

In the case of `Fc1cc2cn[nH]c2cc1-c1nc(Nc2ccc(N3CCOCC3)cc2)c2[nH]ncc2n1` [Example 77, 5-(5-fluoro-1H-indazol-6-yl)-N-(4-morpholinophenyl)-1H-pyrazolo[4,3-d]pyrimidin-7-amine], the IC50 is 10 to 100 nM. For `COc1ccc(Nc2nc(C3CCOC3)nc3cn[nH]c23)cc1OC` (centres unmarked) [Example 80, N-(3,4-dimethoxyphenyl)-5-(tetrahydrofuran-3-yl)-1H-pyrazolo[4,3-d]pyrimidin-7-amine] the value was 100 to 1000 nM. Consider `c1cc(N2CCOCC2)ccc1Nc1nc(C2COCCO2)nc2cn[nH]c12` (centres unmarked) [Example 84, 5-(1,4-dioxan-2-yl)-N-(4-morpholinophenyl)-1H-pyrazolo[4,3-d]pyrimidin-7-amine], for which the IC50 fell in the range of 100 to 1000 nM. As to `N#Cc1cc(Nc2nc(-c3ccc4cn[nH]c4c3)nc3cn[nH]c23)ccc1N1CCOCC1` [Example 85, 5-((5-(1H-indazol-6-yl)-1H-pyrazolo[4,3-d]pyrimidin-7-yl)amino)-2-morpholinobenzonitrile], the 50% inhibitory concentration (IC50) was in the range of 10 to 100 nM.

For `c1coc(-c2nc(Nc3ccc(N4CCOCC4)cc3)c3[nH]ncc3n2)c1` [Example 86, 5-(furan-2-yl)-N-(4-morpholinophenyl)-1H-pyrazolo[4,3-d]pyrimidin-7-amine], the IC50 lay within 10 to 100 nM.

In the case of `COc1ccc(Nc2nc(-c3ccco3)nc3cn[nH]c23)cc1OC` [Example 87, N-(3,4-dimethoxyphenyl)-5-(furan-2-yl)-1H-pyrazolo[4,3-d]pyrimidin-7-amine], the IC50 was 10 to 100 nM. `c1cc(-c2nc(Nc3ccc(N4CCOCC4)cc3)c3[nH]ncc3n2)co1` [Example 94, 5-(furan-3-yl)-N-(4-morpholinophenyl)-1H-pyrazolo[4,3-d]pyrimidin-7-amine] returned an IC50 of 10 to 100 nM. `COc1ccc(Nc2nc(-c3ccoc3)nc3cn[nH]c23)cc1OC` [Example 95, N-(3,4-dimethoxyphenyl)-5-(furan-3-yl)-1H-pyrazolo[4,3-d]pyrimidin-7-amine]: the IC50 lay within 100 to 1000 nM.

Compound `CC(=O)N1CCN(c2ccc(Nc3nc(-c4ccoc4)nc4cn[nH]c34)cc2)CC1` [Example 96, 1-(4-(4-((5-(furan-3-yl)-1H-pyrazolo[4,3-d]pyrimidin-7-yl)amino)phenyl)piperazin-1-yl)ethan-1-one] returned an IC50 of 10 to 100 nM. `CC(C)(C)N1CCN(c2ccc(Nc3nc(-c4ccoc4)nc4cn[nH]c34)cc2)CC1` [Example 97, N-(4-(4-(tert-butyl)piperazin-1-yl)phenyl)-5-(furan-3-yl)-1H-pyrazolo[4,3-d]pyrimidin-7-amine] displayed an IC50 of 10 to 100 nM. For `O=C1OCCN1c1ccc(Nc2nc(-c3ccoc3)nc3cn[nH]c23)cc1` [Example 98] the value was 100 to 1000 nM. `CC1(c2nc(Nc3ccc(N4CCOCC4)cc3)c3[nH]ncc3n2)CC1` [Example 99, 5-(1-methylcyclopropyl)-N-(4-morpholinophenyl)-1H-pyrazolo[4,3-d]pyrimidin-7-amine] came in with an IC50 of 100 to 1000 nM. Regarding `CC(=O)N1CCN(c2ccc(Nc3nc(C4(C)CC4)nc4cn[nH]c34)cc2)CC1` [Example 100, 1-(4-(4-((5-(1-methylcyclopropyl)-1H-pyrazolo[4,3-d]pyrimidin-7-yl)amino)phenyl)piperazin-1-yl)ethan-1-one], the IC50 was 100 to 1000 nM. Regarding `CC1CC1c1nc(Nc2ccc(N3CCOCC3)cc2)c2[nH]ncc2n1` (centres unmarked) [Example 101, 5-(2-methylcyclopropyl)-N-(4-morpholinophenyl)-1H-pyrazolo[4,3-d]pyrimidin-7-amine], the 50% inhibitory concentration (IC50) was 10 to 100 nM.

Consider `CC(=O)N1CCN(c2ccc(Nc3nc(C4CC4C)nc4cn[nH]c34)cc2)CC1` (centres unmarked) [Example 102, 1-(4-(4-((5-(2-methylcyclopropyl)-1H-pyrazolo[4,3-d]pyrimidin-7-yl)amino)phenyl)piperazin-1-yl)ethan-1-one], for which the IC50 is 100 to 1000 nM. For `CC1CC1c1nc(Nc2cnn(C3CCOCC3)c2)c2[nH]ncc2n1` (centres unmarked) [Example 103, 5-(2-methylcyclopropyl)-N-(1-(tetrahydro-2H-pyran-4-yl)-1H-pyrazol-4-yl)-1H-pyrazolo[4,3-d]pyrimidin-7-amine] the value was 100 to 1000 nM. `O=C1CCCc2ccc(Nc3nc(-c4ccoc4)nc4cn[nH]c34)cc2N1` [Example 107, 8-((5-(furan-3-yl)-1H-pyrazolo[4,3-d]pyrimidin-7-yl)amino)-4,5-dihydro-1H-benzo[b]azepin-2(3H)-one] gave an IC50 of 10 to 100 nM. For `CN1CCN(c2ccc(Nc3nc(-c4ccoc4)nc4cn[nH]c34)cn2)CC1` [Example 108, 5-(furan-3-yl)-N-(6-(4-methylpiperazin-1-yl)pyridin-3-yl)-1H-pyrazolo[4,3-d]pyrimidin-7-amine] the value was 100 to 1000 nM; for `c1cc(-c2nc(Nc3cnn(C4CCOCC4)c3)c3[nH]ncc3n2)co1` [Example 110, 5-(furan-3-yl)-N-(1-(tetrahydro-2H-pyran-4-yl)-1H-pyrazol-4-yl)-1H-pyrazolo[4,3-d]pyrimidin-7-amine], 10 to 100 nM; for `CC(=O)N1CCN(c2ccc(Nc3nc(-c4ccco4)nc4cn[nH]c34)cc2)CC1` [Example 111, 1-(4-(4-((5-(furan-2-yl)-1H-pyrazolo[4,3-d]pyrimidin-7-yl)amino)phenyl)piperazin-1-yl)ethan-1-one], 10 to 100 nM. For `CC(C)(C)N1CCN(c2ccc(Nc3nc(-c4ccco4)nc4cn[nH]c34)cc2)CC1` [Example 112, N-(4-(4-(tert-butyl)piperazin-1-yl)phenyl)-5-(furan-2-yl)-1H-pyrazolo[4,3-d]pyrimidin-7-amine] the value was < 10 nM; for `O=C1CCCc2ccc(Nc3nc(-c4ccco4)nc4cn[nH]c34)cc2N1` [Example 113, 8-((5-(furan-2-yl)-1H-pyrazolo[4,3-d]pyrimidin-7-yl)amino)-4,5-dihydro-1H-benzo[b]azepin-2(3H)-one], 10 to 100 nM. For `CN1CCN(c2ccc(Nc3nc(-c4ccco4)nc4cn[nH]c34)cn2)CC1` [Example 114, 5-(furan-2-yl)-N-(6-(4-methylpiperazin-1-yl)pyridin-3-yl)-1H-pyrazolo[4,3-d]pyrimidin-7-amine] the value was 100 to 1000 nM.

What is called IC50 is the point on the concentration scale where inhibition reaches its midpoint.
